For data set [1], the system named is Calu-6. Nature of the data set: Compounds cellular killing (Cell Titer-Glo, 6 days, 2D). Format: cell-based. The note with it: for EC50 / Emax: Homo sapiens; for Emax: read-out: Emax. On the procedure:
(§1) The cell line was grown in a humidified 5% CO2 atmosphere at 37° C., and was regularly tested for the presence of mycoplasma with MycoAlert™ PLUS Mycoplasma Detection Kit (Lonza, LT07-710).
(§2) Incubation at 37° C., 5% CO2, overnight.
(§3) Adding the fresh growth-medium containing the varying concentrations of compounds, 50 ul/well.
(§4) Incubation at 37° C., 5% CO2, 6 days.
(§5) The cell viability detected by Cell Titer-Glo (Promega, G7573). Add 70 µL/well of CellTiter-Glo® Reagent in each well.
(§6) Allow the plates to incubate at room temperature for 10 minutes to stabilize luminescent signal.
(§7) Analyze with Microplate Reader.

Data set [2] can be described thus: in vitro. Particulars: PAMPA. (In general: In PAMPA a lipid-coated filter parts donor from acceptor wells.)
Data set [3] has as its system A375. Nature of the data set: Compounds cellular killing (Cell Titer-Glo, 6 days, 2D). Particulars: for cell-killing activity compared with Dxd: A375; for EC50 / Emax: Homo sapiens; for Emax: read-out: Emax. It counts as cell-based, human. On the procedure: as §1, §2, §3, §4, §5, §6, §7
For orientation: In ATP-based viability assays light output follows the ATP content of the culture.

Data set [4] is described as follows: PAMPA. Particulars: free payload.
Data set [5] deals with MDA-MB-453. Nature of the data set: Payload cellular killing, 2D. Format: cell-based, human. The note with it: Homo sapiens, MDA-MB-453, 2D (HER3 +++); for Emax: read-out: Emax. The protocol: as §1
The test system of data set [6] is HCC1569. Nature of the data set: Payload cellular killing, 2D. It counts as cell-based. Particulars: Homo sapiens, HCC1569, 2D (HER3 +++); for Emax: read-out: Emax.
In data set [7] the target is cathepsin B (Homo sapiens, UniProt P07858). Description: Cathepsin B mediated rhodamine release. Format: biochemical. Particulars: 150 nM, 0.3 unit activated cathepsin B, pH 5.5, 37° C., FIG. 21. On the procedure: CTSB was activated by incubation at ambient temperature for 15 min with 30 mM dithiothreitol and 15 mM EDTA at PH5.5.
Reaction buffer preparation: 25 mM sodium acetate & 1 mM EDTA, PH5.5.
Adding 150 nM NAcCys-13 & NAcCys-14 & NAcCys-15 & NAcCys-16 & NAcCys-17 and 0.3 unit activated cathepsin B mixture according to the experiment template.
The reaction mixtures were incubated at 37° C. immediately in the reader, then start reading using the kinetic set-up described. (TECAN SPARK: excitation/emission: 485/520 nm) (120 cycles, every one min) Gain Manual: 77%
Data analysis by GraphPad Prism 9 is illustrated in FIG. 21.

[8] abbreviates: Calu-6, Table 27, free payload, Calu-6, 2D (HER3 neg.).
Where [9] appears, read: Calu-6, […], Table 29, payload, Clau6, 6d, 2D (Her3 neg).
The mark [10] stands for this setting: Calu-6, Table 29, payload, Clau6, 6d, 2D (Her3 neg).
Where [11] appears, read: A-375, Table 27, free payload, A375, 2D (Her3 ++).
Setting [12] is: A-375, […], Table 29, payload, A375, 6d, 2D (Her3++).
Setting [13] is: A-375, Table 29, payload, A375, 6d, 2D (Her3++).
The mark [14] stands for this setting: Calu-6, Table 28, payload, Calu-6, 2D (HER3 neg.).
Setting [15] is: A-375, Table 28, payload, A375, 2D (Her3 ++).

Where two headings read alike, the source gives them in different places.

Broadly, the EC50 is the midpoint of the concentration-response curve. A lower EC50 goes with an effect from little substance. For orientation: Emax means the size of the effect at its maximum, as opposed to the concentration needed. With `CC[C@@]1(O)C(=O)OCc2c1cc1n(c2=O)Cc2c-1nc1cc(F)c(C)c3c1c2[C@@H](NC(=O)C(C)(C)CO)CC3` [Compound 66, N-((1S,9S)-9-ethyl-5-fluoro-9-hydroxy-4-methyl-10,13-dioxo-2,3,9,10,13,15-hexahydro-1H,12H-benzo[de]pyrano[3′,4′:6,7]indolizino[1,2-b]quinolin-1-yl)-3-hydroxy-2,2-dimethylpropanamide], the “PAMPA -Log Pe” value is 5.89. In data set [1] (Calu-6), the “cell-killing activity compared with Dxd” value was “stronger cell-killing activity than Dxd”. The compound also showed an EC50 in data set [1] (Calu-6, Table 21, Calu-6) of 0.3 nM. Moreover, a half-maximal effect in data set [1] (setting [8]) (EC50) was put at 0.3 nM. The compound also showed an EC50 in data set [1] (setting [9]) of 0.3 nM. Moreover, the Emax in data set [1] (setting [10]) is 97.3%. Further, in data set [1] (Table 21, Calu-6), the maximum response (Emax) was 97.3%. Moreover, the recovery in data set [2] is 79.7%. Further, the “cell-killing activity compared with Dxd” value in data set [3] is reported as “stronger cell-killing activity than Dxd”. Moreover, the EC50 in data set [3] (setting [11]) was 1.1 nM. The EC50 in data set [3] (setting [12]) turned out to be 1.1 nM. In data set [3] (A-375, Table 21, A375), the EC50 was found to be 1.1 nM and the Emax came out at 99.9%. The Emax in data set [3] (setting [13]) came out at 99.9%.

For the compound `CC[C@@]1(O)C(=O)OCc2c1cc1n(c2=O)Cc2c-1nc1cc(F)c(C)c3c1c2[C@@H](NC(=O)CCO)CC3` [Compound 72], the “PAMPA -Log Pe” value is given as 6.02. Further, the “cell-killing activity compared with Dxd” value in data set [1] (Calu-6) is on record as “less potent than Dxd”. In data set [1] (Calu-6, Table 21, Calu-6), the response was half-maximal at 2 nM (EC50). In data set [1] (setting [8]), the EC50 stood at 2 nM. Moreover, in data set [1] (setting [9]), the EC50 was 2 nM. The Emax in data set [1] (setting [10]) is 98.3%. Moreover, the Emax in data set [1] (Table 21, Calu-6) stood at 98.3%. Also, in data set [2], the recovery stood at 48.1%. The “cell-killing activity compared with Dxd” value in data set [3] is reported as “less potent than Dxd”. Moreover, the EC50 in data set [3] (setting [11]) worked out at 4.4 nM. The compound also displayed an EC50 in data set [3] (setting [12]) of 4.4 nM. For the same compound, in data set [3] (A-375, Table 21, A375), the EC50 was found to be 4.4 nM and the Emax came out at 99.9%. Also, the Emax in data set [3] (setting [13]) is 99.9%.

In the case of `CC[C@@]1(O)C(=O)OCc2c1cc1n(c2=O)Cc2c-1nc1cc(F)c(C)c3c1c2[C@@H](NC(=O)CO)CC3` [DXd, reference compound], the Emax came out at 98% in data set [1] (Calu-6, Table 21, Calu-6); 98% in data set [1] (setting [8]); 98.6% in data set [1] (setting [14]); 98.8% in data set [1] (setting [9]); 100% in data set [3] (A-375, Table 21, A375); 100% in data set [3] (setting [13]). In addition, the Emax in data set [5] (MDA-MB-453, Table 28, payload) came out at 98.7%; in data set [6] (HCC1569, Table 28, payload), 93.4%. Moreover, the EC50 in data set [1] (setting [14]) was found to be 1.2 nM; in data set [3] (setting [11]) it was 2.8 nM; in data set [3] (setting [15]), 3.2 nM; in data set [3] (setting [12]), 2.7 nM; in data set [3] (A-375, Table 21, A375), 2.8 nM; in data set [5] (MDA-MB-453, Table 28, payload), 1.9 nM. This compound also had an EC50 in data set [6] (HCC1569, Table 28, payload) of 2.9 nM. Moreover, the “PAMPA -Log Pe” value in data set [4] is 5.89. The same compound displayed a recovery in data set [2] of 95.2%.

On to `CC[C@@]1(O)C(=O)OCc2c1cc1n(c2=O)Cc2c-1nc1cc(F)c(C)c3c1c2[C@@H](N)CC3` [Exatecan, reference compound], for which the EC50 in data set [1] (setting [8]) stood at 0.3 nM; in data set [1] (setting [14]), 0.2 nM; in data set [3] (setting [11]) it was 0.7 nM; in data set [3] (setting [15]), 0.9 nM; in data set [5] (Table 28, payload), 0.5 nM; in data set [6] (Table 28, payload), 0.5 nM. In addition, the Emax in data set [1] (setting [8]) was determined as 96.2%; in data set [1] (setting [14]), 96.4%; in data set [3] (setting [11]), 99.9%; in data set [5] (MDA-MB-453, Table 28, payload), 99.4%; in data set [6] (HCC1569, Table 28, payload), 94.5%. In addition, in data set [4], the “PAMPA -Log Pe” value is recorded as 5.75. This compound also had a recovery in data set [2] of 56%.

With `CCOC(=O)Nc1ccc2c(c1)Oc1cc(NC(=O)OCc3ccc(NC(=O)[C@H](CCCNC(N)=O)NC(=O)[C@@H](NC(=O)[C@H](CP(=O)(O)O)NC(=O)CCOCCOCCOCCN4C(=O)CC(SC[C@H](NC(C)=O)C(=O)O)C4=O)C(C)C)cc3)ccc1C21OC(=O)c2ccccc21` (some centres unmarked) [NAcCys-17], the “cathepsin B mediated rhodamine release rate, rank” value in data set [7] was “NAcCys-15˜NAcCys-13 (benchmark)>NAcCys-14>NAcCys-17”.

Values taken from patent US20250135026A1, “Antibody Drug Conjugates” (BeiGene Switzerland GmbH, priority 2021, published 2025).
